Experimental findings from patent publication US9073821B2, “Hydroxamic acid derivative” (priority 2010, dated 2015) are described below.

Bounds are passed on as bounds.

For the first test, the target named is Pseudomonas aeruginosa LpxC enzyme (Pseudomonas aeruginosa (strain ATCC 15692 / DSM 22644 / CIP 104116 / JCM 14847 / LMG 12228 / 1C / PRS 101 / PAO1), UniProt P47205). In words: biochemical. It is filed as biochemical. To be noted: class symbols A/B/C by IC50; Table 3; read-out: Enzyme inhibitory activity (inhibitory activity on Pseudomonas aeruginosa LpxC enzyme).
Turning to `CNC(=O)C(C(=O)NO)N(C)C(=O)c1ccc(C#Cc2ccc(N3CCC(N4CCOCC4)CC3)cc2)cc1` (stereo not shown) [Compound 496, N-hydroxy-N′-methyl-2-(methyl {[4-({4-[4-(morpholin-4-yl)piperidin-1-yl]phenyl}ethynyl)phenyl]carbonyl}amino)propanediamide], the IC50 was below 10 nM.
As for `CNC(=O)C(C(=O)NO)N(C)C(=O)c1ccc(C#CC2=CCCCC2)cc1` (stereo not shown) [Compound 523, 2-[{[4-(cyclohex-1-en-1-ylethynyl)phenyl]carbonyl}(methyl)amino]-N-hydroxy-N′-methylpropanediamide], the IC50 fell in the range of 10 to 100 nM.

Still in this test, the particulars now being: inhibitory activity on Pseudomonas aeruginosa LpxC enzyme, class symbols A/B/C; read-out: Enzyme inhibitory activity.
Turning to `CNC(=O)C(C(=O)NO)N(C)C(=O)c1ccc(-c2ccc(OCCCN3CCSCC3)cc2)cc1` (stereo not shown) [Compound 288, N-hydroxy-N′-methyl-2-[methyl({4′-[3-(thiomorpholin-4-yl)propoxy]biphenyl-4-yl}carbonyl)amino]propanediamide], the IC50 is below 10 nM.
As to `CNC(=O)C(C(=O)NO)N(C)C(=O)c1ccc(-c2ccccc2)cc1O` (stereo not shown) [Compound 24, N-hydroxy-2-{[(3-hydroxybiphenyl-4-yl)carbonyl](methyl)amino}-N′-methylpropanediamide], the IC50 is above 100 nM.
Turning to `CNC(=O)C(C(=O)NO)N(C)C(=O)c1ccc(-c2ccc(N3CCOCC3)cc2)cc1` (stereo not shown) [Compound 53, N-hydroxy-N′-methyl-2-(methyl {[4′-(morpholin-4-yl)biphenyl-4-yl]carbonyl}amino)propanediamide], the IC50 lay within 10 to 100 nM.
Turning to `CNC(=O)C(C(=O)NO)N(C)C(=O)c1ccc(-c2ccc3ccn(C)c3c2)cc1` (stereo not shown) [Compound 36, N-hydroxy-N′-methyl-2-{methyl[4-(1-methyl-1H-indol-6-yl)benzoyl]amino}propanediamide], the IC50 is below 10 nM.
As for `CNC(=O)C(C(=O)NO)N(C)C(=O)c1ccc(C#Cc2ccn(C)n2)cc1` (stereo not shown) [Compound 418, N-hydroxy-N′-methyl-2-[methyl({4-[(1-methyl-1H-pyrazol-3-yl)ethynyl]phenyl}carbonyl)amino]propanediamide], the IC50 was above 100 nM.
As for `CNC(=O)C(C(=O)NO)N(C)C(=O)c1ccc(-c2ccc(OCCCNc3ccccc3)cc2)cc1` (stereo not shown) [Compound 75, N-hydroxy-N′-methyl-2-[methyl({4′-[3-(phenylamino)propoxy]biphenyl-4-yl}carbonyl)amino]propanediamide], the IC50 is below 10 nM.
Regarding `Cc1nnc(CNC(=O)C(NC(=O)c2ccc(-c3ccc(OCCO)cc3)cc2)C(=O)NO)s1` (stereo not shown) [Compound 155, N-hydroxy-2-({[4′-(2-hydroxyethoxy)biphenyl-4-yl]carbonyl}amino)-N′-[(5-methyl-1,3,4-thiadiazol-2-yl)methyl]propanediamide], the IC50 was below 10 nM.
On to `CNC(=O)C(C(=O)NO)N(C)C(=O)c1ccc(-c2ccc(OCc3ccc(C(=O)O)cc3)cc2)cc1` (stereo not shown) [Compound 98, 4-{[(4′-{[1-(hydroxyamino)-3-(methylamino)-1,3-dioxopropan-2-yl](methyl)carbamoyl}biphenyl-4-yl)oxy]methyl}benzoate], for which the IC50 fell in the range of 10 to 100 nM.
On to `CNC(=O)C(C(=O)NO)N(CCOC)C(=O)c1ccc(-c2ccccc2)cc1` (stereo not shown) [Compound 166, 2-[(biphenyl-4-ylcarbonyl)(2-methoxyethyl)amino]-N-hydroxy-N′-methylpropanediamide], for which the IC50 is 10 to 100 nM.
For `CSCCNC(=O)C(NC(=O)c1ccc(-c2ccc(OCCO)cc2)cc1)C(=O)NO` (stereo not shown) [Compound 132, N-hydroxy-2-({[4′-(2-hydroxyethoxy)biphenyl-4-yl]carbonyl}amino)-N′-[2-(methylsulfanyl)ethyl]propanediamide], the IC50 was below 10 nM.
Consider `CCCCc1ccc(-c2ccc(C(=O)N(C)C(C(=O)NC)C(=O)NO)cc2)cn1` (stereo not shown) [Compound 474, 2-[{[4-(6-butylpyridin-3-yl)phenyl]carbonyl}(methyl)amino]-N-hydroxy-N′-methylpropanediamide], for which the IC50 lay in the range of 10 to 100 nM.
Consider `CN(C)C(=O)CNC(=O)C(C(=O)NO)N(C)C(=O)c1ccc(-c2ccccc2)cc1` (stereo not shown) [Compound 173, 2-[(biphenyl-4-ylcarbonyl)(methyl)amino]-N-[2-(dimethylamino)-2-oxoethyl]-N′-hydroxypropanediamide], for which the IC50 is above 100 nM.
On the same count and under the same terms, for `CNC(=O)C(C(=O)NO)N(C)C(=O)c1ccc(-c2ccc(OCCOCCO)cc2)cc1` (stereo not shown) [Compound 15, N-hydroxy-2-[({4′-[2-(2-hydroxyethoxy)ethoxy]biphenyl-4-yl}carbonyl)(methyl)amino]-N′-methylpropanediamide] the value was 10 to 100 nM; for `CN(C)C(=O)C(C(=O)NO)N(C)C(=O)c1ccc(-c2ccccc2)cc1` (stereo not shown) [Compound 80, 2-[(biphenyl-4-ylcarbonyl)(methyl)amino]-N′-hydroxy-N,N-dimethylpropanediamide], above 100 nM.
For `CNC(=O)C(C(=O)NO)N(C)C(=O)c1ccc(-c2cc(F)c(NC)c(F)c2)cc1` (stereo not shown) [Compound 69, 2-[{[3′,5′-difluoro-4′-(methylamino)biphenyl-4-yl]carbonyl}(methyl)amino]-N-hydroxy-N′-methylpropanediamide], the IC50 is below 10 nM.
Regarding `CNC(=O)C(C(=O)NO)N(C)C(=O)c1ccc(-c2ccc3ncccc3c2)cc1` (stereo not shown) [Compound 200, N-hydroxy-N′-methyl-2-{methyl[4-(quinolin-6-yl)benzoyl]amino}propanediamide], the IC50 is below 10 nM.
Turning to `CNC(=O)C(C(=O)NO)N(C)C(=O)c1ccc(-c2ccccc2)nc1` (stereo not shown) [Compound 190, N-hydroxy-N′-methyl-2-{methyl[(6-phenylpyridin-3-yl)carbonyl]amino}propanediamide], the IC50 was above 100 nM.
On to `CNC(=O)C(C(=O)NO)N(C)C(=O)c1ccc(OCC#Cc2ccccc2)cc1` (stereo not shown) [Compound 453, N-hydroxy-N′-methyl-2-[methyl({4-[(3-phenylprop-2-yn-1-yl)oxy]phenyl}carbonyl)amino]propanediamide], for which the IC50 is 10 to 100 nM.
Take `CNC(=O)C(C)(C(=O)NO)N(C)C(=O)c1ccc(-c2ccc(C)cc2)cc1` (stereo not shown) [Compound 349, N-hydroxy-N′,2-dimethyl-2-{methyl[(4′-methylbiphenyl-4-yl)carbonyl]amino}propanediamide]: the IC50 is below 10 nM.
In the case of `CNC(=O)C(C(=O)NO)N(C)C(=O)c1ccc(-c2ccc3c(c2)CCN3)cc1` (stereo not shown) [Compound 39, 2-{[4-(2,3-dihydro-1H-indol-5-yl)benzoyl](methyl)amino}-N-hydroxy-N′-methylpropanediamide], the IC50 lay in the range of 10 to 100 nM.
Same read-out and setting: for `CNC(=O)C(C(=O)NO)N(C)C(=O)c1ccc(-c2ccncc2F)cc1` (stereo not shown) [Compound 448, 2-[{[4-(3-fluoropyridin-4-yl)phenyl]carbonyl}(methyl)amino]-N-hydroxy-N′-methylpropanediamide] the value was 10 to 100 nM; for `CNC(=O)C(C(=O)NO)N(C)C(=O)c1ccc(C#Cc2ccc(CNC3CCC3)cc2)cc1` (stereo not shown) [Compound 316, 2-[{[4-({4-[(cyclobutylamino)methyl]phenyl}ethynyl)phenyl]carbonyl}(methyl)amino]-N-hydroxy-N′-methylpropanediamide], 10 to 100 nM.
The same measure, in the same setting: for `CCCCc1ccc(C(=O)N(C)C(C(=O)NC)C(=O)NO)cc1` (stereo not shown) [Compound 37, 2-[(4-butylbenzoyl)(methyl)amino]-N-hydroxy-N′-methylpropanediamide] the value was 10 to 100 nM.
